Several values for one entry are separate records, joined by “and”; a condition that tells them apart may be missing. Equal entries are not always repeated. Where two headings read alike, the source gives them in different places.
Key:
vcDHQD (type II DHQD) = molecular target: T1, vcDHQD (type II DHQD) (Vibrio cholerae, UniProt Q9KV60); assay: vcDHQD inhibition, DHQD panel; assay type: biochemical
T1 sequence (Q9KV60 1-150): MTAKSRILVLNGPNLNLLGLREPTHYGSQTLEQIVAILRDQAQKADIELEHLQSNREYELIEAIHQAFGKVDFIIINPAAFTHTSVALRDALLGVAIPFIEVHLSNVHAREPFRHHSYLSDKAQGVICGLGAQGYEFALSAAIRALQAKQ

ypDHQD (type II DHQD) = ypDHQD (type II DHQD) (Yersinia pestis, UniProt Q8ZAX1); assay: biochemical
Chain of ypDHQD (type II DHQD) (Q8ZAX1 whole entry, looked up): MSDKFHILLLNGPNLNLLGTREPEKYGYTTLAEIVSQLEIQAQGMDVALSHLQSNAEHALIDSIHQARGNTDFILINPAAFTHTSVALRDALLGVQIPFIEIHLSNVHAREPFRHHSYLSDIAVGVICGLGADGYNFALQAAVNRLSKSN

cdDHQD [1] = molecular target: T2, cdDHQD (Clostridioides difficile, UniProt Q186A6); assay: biochemical; parameters: species or system Clostridium difficile
T2 sequence (Q186A6 whole entry): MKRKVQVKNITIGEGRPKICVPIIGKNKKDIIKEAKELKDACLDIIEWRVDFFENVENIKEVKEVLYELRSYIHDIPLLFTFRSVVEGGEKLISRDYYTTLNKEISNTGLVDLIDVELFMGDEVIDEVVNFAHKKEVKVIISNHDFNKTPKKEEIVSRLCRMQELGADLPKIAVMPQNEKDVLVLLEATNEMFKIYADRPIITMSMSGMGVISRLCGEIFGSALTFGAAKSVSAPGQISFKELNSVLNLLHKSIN

seDHQD [2] = molecular target: T3, seDHQD (Salmonella typhimurium, UniProt P58687); assay: NMR line broadening with seDHQD; assay type: binding, Salmonella enterica; conditions: similar compound concentrations; 10 µM DHQD, 100 µM compound
T3 sequence (P58687 whole entry): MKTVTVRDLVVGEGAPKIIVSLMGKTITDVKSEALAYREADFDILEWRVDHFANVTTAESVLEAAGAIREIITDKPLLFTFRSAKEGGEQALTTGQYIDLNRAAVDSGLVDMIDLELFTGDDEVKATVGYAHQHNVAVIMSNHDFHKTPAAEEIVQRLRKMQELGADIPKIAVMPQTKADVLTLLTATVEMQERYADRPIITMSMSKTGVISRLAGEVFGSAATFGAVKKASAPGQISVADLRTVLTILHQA
From the text: Supplementary Figure S2. NMR data for binding of compounds 1 and 2 to cdDHQD. (A) Line broadening observed for compound 1 upon addition of cdDHQD or seDHQD. (B) Line broadening observed for compound 2 upon addition of cdDHQD or seDHQD. […] Line widths were estimated using NMRDraw (Delaglio et al., 1995).

cdDHQD [3] = molecular target: T2, cdDHQD; conditions: 10 µM DHQD, 100 µM compound
cdDHQD [4] = molecular target: T2, cdDHQD; assay: biochemical
btDHQD (type II DHQD) = molecular target: T4, btDHQD (type II DHQD) (Bacteroides thetaiotaomicron, UniProt Q8A3W2); assay: btDHQD inhibition, primary screen DHQD assay
T4 sequence (Q8A3W2 1-140): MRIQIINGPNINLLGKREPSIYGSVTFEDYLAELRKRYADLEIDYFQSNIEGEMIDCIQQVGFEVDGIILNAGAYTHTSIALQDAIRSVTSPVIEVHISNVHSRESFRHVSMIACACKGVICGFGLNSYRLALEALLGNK

cdDHQD [5] = molecular target: T2, cdDHQD; assay: biochemical; conditions: Kd for binding to cdDHQD (WaterLOGSY), NMR titration; PBS pH 7.2, 25°C
seDHQD [6] = molecular target: T3, seDHQD; assay: WaterLOGSY NMR titration with seDHQD; conditions: Kd for binding to seDHQD (WaterLOGSY), PBS pH 7.2, 25°C
[7] = type II DHQD, read-out: IC50 vcDHQD
[8] = Kd for binding to cdDHQD (line broadening, double reciprocal plot), NMR, PBS pH 7.2, 25°C
[9] = Kd for binding to cdDHQD, fit of single resonances, NMR titration, two different resonances per compound (Figure 3A, 3B)
[10] = 200 µM compound, substrate up to 5 mM

Row | SMILES | IC50 (vcDHQD (type II DHQD); [7]) [µM] | IC50 (ypDHQD (type II DHQD)) [µM] | Ki (cdDHQD [1]) [µM] | line broadening of compound resonances with seDHQD (seDHQD [2]) [Hz] | line broadening of compound resonances with cdDHQD (cdDHQD [3]) [Hz] | Kd (cdDHQD [4]; [8]) | Kd (cdDHQD [4]; [9]) | IC50 (btDHQD (type II DHQD)) [µM] | Vmax in presence of inhibitor (cdDHQD [1]; [10]) | increase of apparent Km (cdDHQD [1]; [10]) [fold] | mechanism of inhibition (cdDHQD [1]; from Km/Vmax at high substrate) | Kd (cdDHQD [5]) | Kd (seDHQD [6]) | IC50 (vcDHQD (type II DHQD)) [µM]
1 | O=S(=O)(Nc1nc(-c2ccccc2)cs1)c1cc(Cl)ccc1Cl [Compound 1] | > 200 | > 200 | 11 to 15 | < 1 | > 6 | ~27 µM and ~25 µM | 35 µM and 18 µM | > 200 | – | – | – | – | – | –
2 | O=C(O)c1ccccc1NC(=O)c1csc2c1CCCC2 [Compound 3] | > 200 | > 200 | 19 to 22 | – | – | – | – | > 200 | unchanged | 10 | competitive | ~65 µM and 67 µM | ~400 µM and ~390 µM | –
3 | COc1ccc2nc(NS(=O)(=O)c3cc(Cl)ccc3Cl)sc2c1 [Compound 2] | – | > 200 | – | < 1 | > 6 | ~25 µM | 15 µM and 34 µM | > 200 | – | – | – | – | – | > 200

— article PMC3931744, “Discovery of Selective Inhibitors of the Clostridium difficile Dehydroquinate Dehydratase” (PLoS ONE, 2014)
